Data on 4 compounds can be found in patent US10550109B2, “Crystal form of brexpiprazole and preparation method therefor” (Zhejiang Huahai Pharmaceutical Co., Ltd, priority 2016, dated 2020).

A short description of this data set: Comparison of stability (water content over time) of brexpiprazole solid forms at 25° C. and 60% ambient humidity. The format is physicochemical. How it is done: The comparation of the stability of brexpiprazole in the crystal form I, the dihydrated crystal form, the anhydrous crystal form and the amorphous form is shown in Table 1. The test in Table 1 was carried out at 25° C. and 60% ambient humidity.

With `O=c1ccc2ccc(OCCCCN3CCN(c4cccc5sccc45)CC3)cc2[nH]1` [Amorphous form, 7-{4-[4-(1-benzothiophen-4-yl)piperazin-1-yl]butoxy}-1H-quinolin-2-one], the “Water Content (after 1 month)” value is given as 0.13 wt. %, the “Water Content (after 2 months)” value is reported as 0.22 wt. %, the “Water Content (after 3 months)” value was 0.40 wt. % and the “Water Content (initial)” value is recorded as 0.02 wt. %.
The corresponding values for `O=c1ccc2ccc(OCCCCN3CCN(c4cccc5sccc45)CC3)cc2[nH]1` [Anhydrous crystal form, 7-[4-(4-benzo[b]thiophen-4-yl-piperazin-1-yl)butoxy]-1H-quinolin-2-one] are 0.09 wt. %, 0.21 wt. %, 0.30 wt. % and 0.02 wt. %.
In the same order, the values of `O=c1ccc2ccc(OCCCCN3CCN(c4cccc5sccc45)CC3)cc2[nH]1` [Crystal form I, 7-{4-[4-(1-benzothiophen-4-yl)piperazin-1-yl]butoxy}-1H-quinolin-2-one] are 1.27 wt. %, 1.26 wt. %, 1.27 wt. % and 1.24 wt. %.
For `O=c1ccc2ccc(OCCCCN3CCN(c4cccc5sccc45)CC3)cc2[nH]1` [Dihydrated crystal form, 7-[4-(4-benzo[b]thiophen-4-yl-piperazin-1-yl)butoxy]-1H-quinolin-2-one dihydrate], where the note is “dihydrate”, the “Water Content (after 1 month)” value was found to be 6.90 wt. %, the “Water Content (after 2 months)” value came to 7.10 wt. %, the “Water Content (after 3 months)” value came out at 7.50 wt. % and the “Water Content (initial)” value amounted to 6.74 wt. %.
